# Measurements as given in patent US20230183241A1, “CRYSTAL OF A HYPOXANTHINE COMPOUND” (Kissei Pharmaceutical Co., Ltd., priority 2020, published 2023).
# Read-outs that look alike come from different tables or passages of the source.
# Columns and labels:
# [1] = Rat PK study: concentration of compounds in large intestine tissue and plasma; format: in vivo; settings: male, SD, 3 mg/kg oral
# Experimental: Test Example 3 Concentration of Compounds in Large Intestine Tissue
# The test compound (3 mg/kg/5 mL) prepared with 0.05% methylcellulose was orally administered to non-fasted rats (SD, 8-week-old, male, Japan SLC). Blood samples were collected from jugular vein at 0.25, 0.5, 1, 2, 4, 6 and 8 hours after the administration. Laparotomy was performed under isoflurane anesthesia and large intestine was isolated. The collected distal large intestine (about 5 cm) was cut open, and then the large intestine extracted was washed with saline on a dish. After washing, the large intestine was minced with small scissors. About 150 mg thereof was moved to a tube. To the tube was added 100 μL of saline, and the mixture was homogenized using shake master (1000 rpm×30 minutes). Samples were prepared by the addition with quadruple volume of saline as the final volume. The concentrations of the test compound in the large intestine tissue and the plasma were measured through a quantitative analysis using liquid chromatography-mass spectrometry (LC/MS).
# As the comparative example, a compound described as example 55 in US2015/0239889 (WO2014/030716) (Compound A) was used.
# Symbols in the table have the following meanings. Compound A: comparative example Cmax: maximum plasma concentration of the test compound in the case of oral administration (ng/mL) AUC: area under the plasma test compound concentration-time curve (ng*min/mL) Plasma: plasma test compound concentration after 8 hours (ng/mL) Colon: concentration of the test compound in the large intestine tissue after 8 hours (ng/g) C/P: ratio of the above Colon and Plasma
# human PHD2184-418 = target: T1, human PHD2184-418 (Homo sapiens, UniProt Q9GZT9); test: PHD2 inhibitory test (fluorescence polarization, FITC-labeled HIF-1α556-574); settings: human PHD2 binding inhibitory activity; 2 μM 2-oxoglutarate, 37° C., 60 minutes
# T1 construct: containing amino acid residues 184 to 418 of the protein represented by CAC42509; histidine tag (N); made in house; host or cells: E. coli BL21 (DE3), pET-30a(+) vector
# Experimental: Test Example 1 PHD2 Inhibitory Test
# (1) Expression and preparation of human PHD2184-418
# Human PHD2184-418 containing amino acid residues 184 to 418 of the protein represented by CAC42509 (GenBank accession ID) was expressed and prepared by the following method.
# An expression construct of human PHD2184-418 containing N-terminal histidine tag was introduced into pET-30α (+) vector, and the sequence was confirmed. This vector was introduced into BL21 (DE3) strain and cultured at 37° C. in LB medium containing antibiotics. After culturing, a cell lysis solution was added to the cells, and then the cells were disrupted and suspended by sonication. The disrupted suspension was centrifuged and the supernatant was purified by Ni column to give human PHD2184-418.
# Human HIF-1α556-574 (FITC-labeled HIF-1α556-574), containing FITC-Ahx at the N-terminal of HIF-1α556-574 containing amino acid residues 556 to 574 (partial peptide) of human HIF-1α was used as a substrate. Using FITC-labeled HIF-1α556-574, the competitive inhibition between 2-oxoglutarate and the test compound (PHD inhibitor) was evaluated based on the change in fluorescence polarization of FITC-labeled HIF-1α556-574 by the following method.
# An enzyme (human PHD2184-418) and the substrate were diluted with an assay buffer (pH 7.4) containing 10 mM HEPES, 150 mM NaCl, 10 μM MnCl2-4H2O, 2 μM 2-oxoglutarate and 0.05% Tween-2θ. […]
# [2] = tested on: TNBS induced colitis model rat; test: Therapeutic effect in colitis model: suppression of intestinal permeability (FITC); format: in vivo; settings: 3 mg/kg orally once a day for 3 days, serum FITC
# Experimental: Test Example 2 Therapeutic Effect in Colitis Model
# (1) TNBS Induced Colitis Model Rat
# Thus, the suppressive effect on the intestinal permeability based on oral administration of the test compound was evaluated as an indicator of medicinal efficacy.
# SD male rats: 8-week-old SLC (Japan SLC) were used. Under pentobarbital anesthesia, 300 μL of TNBS (28 mg/mL) which was prepared by 50% ethanol was administered at a point 8 cm from the anus in the large intestine to cause inflammation. To the solvent-treated group was administrated 300 μL of 50% ethanol. Animals were fasted for 48 hours prior to administration of TNBS. The test compound (3 mg/kg) prepared by 0.05% methylcellulose solution was orally administered once a day from the next day, and it was administered for a total of 3 days. After administering for 3 days, 50 mg/kg FITC was orally administered 4 hours after the administration of the test compound. Blood samples were collected from jugular vein under isoflurane anesthesia after 4 hours. The serum was centrifuged and fluorescence intensity was detected by PHERAstar FSX (BMG Labtech) to measure the concentration of FITC permeating into circulating blood through the mesentery. The suppressive rate on the intestinal permeability of the test compound was calculated based on the value of the test substance-free group as 0 and the value of the TNBS-untreated group as 100.
# Solid stability test = format: physicochemical; settings: open condition at 40° C., 1 month; for Amount of the mass change of the compound 1: HPLC area normalization; for Crystal form change: powder X-ray diffraction; for Properties: appearance White powder
# Experimental: Test Example 4: Solid Stability Test
# Physicochemical stability and chemical stability for crystals of compound 1 (crystal forms I to IV) were examined.
# Physicochemical stability: Each crystal was stored under open condition at 40° C. The powder X-ray diffraction of the sample was measured at the initial point and 1 month later, and the change in crystal form was confirmed. The change in properties was also observed at the same time. Chemical stability: Each crystal was stored under open condition at 40° C. The mass of the compound 1 was measured under the following HPLC measurement conditions at the initial point and 1 month later. [HPLC conditions] Detector: Ultraviolet and visible absorptiometer/wavelength: 225 nm
# Column: L-column2 ODS, 3 μm, 4.6×150 mm (Chemicals Evaluation and Research Institute)
# Column temperature: Constant temperature around 40° C. Flow rate: 1.0 mL/min Mobile phase A: A solution which was prepared with phosphoric acid to pH 2.3 after dissolving potassium dihydrogen phosphate in water to 20 mmol/L Mobile phase B: Acetonitrile Mobile phase ratios 0 to 30 minutes: mobile phase A/mobile phase B=81/19 30 to 50 minutes: mobile phase A/mobile phase B=81/19 to 25/75 50 to 55 minutes: mobile phase A/mobile phase B=25/75 55 to 55.01 minutes: mobile phase A/mobile phase B=25/75 to 81/19 55.01 to 75 minutes: mobile phase A/mobile phase B=81/19 Amount of injection: 5 μL Sample cooler: 4° C. Dissolution solvent: Mixed solution (mobile phase A/acetonitrile=75/25) Sample solution: Sample was dissolved in dissolution solvent and adjusted to about 1.0 mg/mL
# Excluding the peaks derived from the blank, the peak areas of the compound 1 and an analogous substance were measured by automatic integration, and the mass of the compound 1 was calculated by area normalization method. Further, the amount of the mass change of the compound 1 after the storage was calculated.
# T1 sequence (Q9GZT9 184-418): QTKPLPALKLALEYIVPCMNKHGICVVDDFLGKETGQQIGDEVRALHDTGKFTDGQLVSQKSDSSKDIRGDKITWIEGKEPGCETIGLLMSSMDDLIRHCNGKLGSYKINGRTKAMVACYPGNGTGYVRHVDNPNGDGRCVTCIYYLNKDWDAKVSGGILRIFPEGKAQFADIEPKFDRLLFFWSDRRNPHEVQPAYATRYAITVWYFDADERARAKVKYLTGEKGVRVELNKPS
Compound,"concentration at 8 h ([1]; large intestine tissue (distal), read-out: Colon: concentration in the large intestine tissue after 8 hours) [ng/g]","Kp at 8 h ([1]; large intestine tissue / plasma, read-out: C/P: ratio of Colon and Plasma)","concentration at 8 h ([1]; plasma, read-out: Plasma: plasma test compound concentration after 8 hours) [ng/mL]",IC50 (human PHD2184-418) [nM],Amount of the mass change of the compound 1 (Solid stability test) [%],Crystal form change (Solid stability test),Properties (Solid stability test),"Inhibition (suppressive rate on the intestinal permeability, mean) [2] [%]"
"COc1ccc(Cn2cnc3nc(-n4cc(C(=O)O)cn4)[nH]c(=O)c32)cc1 [Crystal form I of the compound 1, 1-(7-(4-Methoxybenzyl)-6-oxo-6,7-dihydro-1H-purin-2-yl)-1H-pyrazole-4-carboxylic acid]",–,–,–,–,−0.05,No change,no change,–
"COc1ccc(Cn2cnc3nc(-n4cc(C(=O)O)cn4)[nH]c(=O)c32)cc1 [Crystal form II of the compound 1, 1-(7-(4-Methoxybenzyl)-6-oxo-6,7-dihydro-1H-purin-2-yl)-1H-pyrazole-4-carboxylic acid]",–,–,–,–,0.03,No change,no change,–

# Second part, led by results:
"concentration at 8 h ([1]; large intestine tissue (distal), read-out: Colon: concentration in the large intestine tissue after 8 hours) [ng/g]","Kp at 8 h ([1]; large intestine tissue / plasma, read-out: C/P: ratio of Colon and Plasma)","concentration at 8 h ([1]; plasma, read-out: Plasma: plasma test compound concentration after 8 hours) [ng/mL]",IC50 (human PHD2184-418) [nM],Amount of the mass change of the compound 1 (Solid stability test) [%],Crystal form change (Solid stability test),Properties (Solid stability test),Compound,"Inhibition (suppressive rate on the intestinal permeability, mean) [2] [%]"
209,> 209,< 1,440,–,–,–,"COc1ccc(Cn2cnc3nc(-n4cc(C(=O)O)cn4)[nH]c(=O)c32)cc1 [Compound 1, 1-(7-(4-Methoxybenzyl)-6-oxo-6,7-dihydro-1H-purin-2-yl)-1H-pyrazole-4-carboxylic acid]",83
–,–,–,–,0.00,No change,no change,"COc1ccc(Cn2cnc3nc(-n4cc(C(=O)O)cn4)[nH]c(=O)c32)cc1 [Crystal form III of the compound 1, 1-(7-(4-Methoxybenzyl)-6-oxo-6,7-dihydro-1H-purin-2-yl)-1H-pyrazole-4-carboxylic acid]",–
–,–,–,–,0.00,No change,no change,"COc1ccc(Cn2cnc3nc(-n4cc(C(=O)O)cn4)[nH]c(=O)c32)cc1 [Crystal form IV of the compound 1, 1-(7-(4-Methoxybenzyl)-6-oxo-6,7-dihydro-1H-purin-2-yl)-1H-pyrazole-4-carboxylic acid]",–
